Where “and” joins values, the source holds several entries; their conditions need not be identical. Equal entries are not always repeated. Entries after “also recorded” stand apart in the source; their conditions may differ. Structures can show the parent of a compound that is named as a salt. Where two headings read alike, the source gives them in different places.
Legend:
mice [1] = assay: In vivo actions of naltrexone-oxymorphonazine (tailflick latencies); set-up: species or system mouse; settings: for Tailflick Latencies, Prior: baseline prior to 10 mg/kg s.c.
Experimental: Groups of mice were injected subcutaneously with the stated drug and latencies in the tailflick test determined and compared to those obtained prior to testing. […] This compares with an analgesic rate of 100% of animals receiving oxymorphone HCl in other control experiments.

opiate receptors [2] = format: binding, rat; settings: for irreversible inhibition of [^3 H]D-ala^2 -D-leu^5 -enkephalin binding (in words): 2 μM; for Change in Binding (Percent), [^3 H]D-ala^2 -D-leu^5 -enkephalin: compound 2 μM, 30 min 25° C., four washes, ligand 1 nM, mean ± s.e.m. of three experiments
Experimental: (§1) In brief, brain membranes were prepared and triplicate samples incubated with [^3 H] labelled ligands and designated drugs for 30 minutes at 25° C., followed by filtration over Whatman GF/B filters. […] Specific binding is defined as the difference in binding in the presence and absence of levallorphan (1 uM). […] Each tissue wash included incubation for 10 min. at 37° C., centrifugation and resuspension. Irreversibility experiments included four washes before binding assays were performed, unless otherwise stated.
(§2) To determine which compounds did irreversibly bind to the receptor, membranes were incubated with the various drugs (2 μM) and then the free and reversibly bound drug washed away (Table 2).
(§3) Rat brain membranes were prepared and incubated with the above drugs (2 μM) for 30 min at 25° C. and the tissue was then washed four times as described in the text to remove reversibly bound material. The results represent the means ±s.e.m. of three separate experiments utilizing [^3 H]D-ala^2 -D-leu^5 -enkephal in (1 nM) and [^3 H]dihydromorphine (0.8 nM). […] After 15 min the solution was added to tissue.

rats [3] = format: in vivo, rat; settings: 50 mg/kg intravenously
Experimental: They were then food deprived for 24 hours but allowed free access to water. Five rats received saline, four received naloxone and three naloxazone. […] The animals were then given free access to food for 1 hour and their weight gain noted. Thus, eating was measured 24 hours after the administration of the drugs and after 24 hours of food deprivation.

prolactin release = assay: Prolactin release in vivo
growth hormone release = assay: Growth hormone release in vivo
opiate receptors [4] = assay: Irreversible opiate receptor binding/blocking (general statements); settings: for removal of reversible ligand by washing (in words): two washes with incubation at 37° for 10 min; for potency of irreversible block of opiate binding in vitro relative to corresponding hydrazone: azine vs corresponding hydrazone
Experimental: as §1

[5] = test system: high affinity, or mu1, binding sites; settings: Pasternak et al.; Zhang and Pasternak; cited from earlier work
[6] = Reaction of hydrazones to azines in solution; settings: acidic aqueous solutions; absolute ethanol or water/acetic acid (1%), 15 min
opiate receptors [7] = target: T1, opiate receptors (Rattus norvegicus, UniProt P33535); assay: biochemical; format: binding
T1 construct: Rat brain homogenates were prepared as described; from tissue; host or cells: rat brain homogenate / membranes
Experimental: as §1
IC50 values were determined by least square fits of a log-probit curve. The results are the means ±s.e.m. of three IC50 values determined in separate experiments.

opiate receptors [8] = target: T1, opiate receptors; assay: biochemical; format: binding; settings: for irreversible inhibition of [^3 H]dihydromorphine binding (in words): 2 μM, various concentrations in b75 (FIG. 2); for inhibition at 2 µM: 0.5 h, read-out: Change in Binding (Percent), [^3 H]dihydromorphine
Experimental: Results are from a single experiment which has been replicated three times.
as §1, §2, §3
After incubating membranes with the specified drug, the membranes were extensively washed and a binding assay with [^3 H]dihydromorphine performed.

rats [9] = settings: cited from earlier work
mice [10] = assay: Oxymorphonazine analgesia in vivo (Tail-Flick Assay); set-up: species or system mouse; settings: 25 μg in 5 μl of artificial CSF; for Analgesia (percent), 20 hr.: groups differ p<0.015, Fisher's Exact Test
Experimental: Mice were injected with either oxymorphone or oxymorphonazine (both 25 μg in 5 μl of artificial CSF) under Ethrane/oxygen anesthesia and tested for analgesia at the stated time. Analgesia was determined by Tail-Flick Assay. Quantal criteria, the doubling of the baseline latency for each individual animal, was used. At 20 hours, the oxymorphone and oxymorphonazine groups differed from each other at p<0.015 level, as determined by Fisher's Exact Test.

Duration of action = format: in vivo; settings: compared to conventional / currently available opiates
opiate receptors [11] = assay: Irreversible inhibition of ^3 H-DADL binding, 100 nM, two washes; set-up: species or system rat; settings: for ^3 H-DADL Binding: 30 min 25° C., DADL 1 nM, control 1800 ± 53 cpm, triplicate ± S.E.M.; for ^3 H-DADL Binding, change: vs control, 30 min
Experimental: (§4) Each wash consisted of centrifugation, incubation at 37° for 10 min and centrifugation again. […] Bindig was then performed with either ^3 H-D-ala^2 -D-leu^5 -enkephalin (DADL) or ^3 H-dihydromorphine (DHM) both at 1 nM. Specific binding was determined as that displaceable by levallorphan at 1000 nM. All values represent the means of triplicate samples ±S.E.M.

opiate receptors [12] = target: T1, opiate receptors; assay: Irreversible inhibition of ^3 H-DHM binding, 100 nM, two washes; settings: for ^3 H-DHM Binding: 100 nM, 30 min 25° C., two washes, DHM 1 nM, control 3447 ± 273 cpm, triplicate ± S.E.M.; for inhibition at 0.1 µM: 0.5 h, read-out: ^3 H-DHM Binding, change
Experimental: as §4

[13] = compound 2 μM, 30 min 25° C., four washes, ligand 0.8 nM, mean ± s.e.m. of three experiments

T1 sequence (P33535 whole entry): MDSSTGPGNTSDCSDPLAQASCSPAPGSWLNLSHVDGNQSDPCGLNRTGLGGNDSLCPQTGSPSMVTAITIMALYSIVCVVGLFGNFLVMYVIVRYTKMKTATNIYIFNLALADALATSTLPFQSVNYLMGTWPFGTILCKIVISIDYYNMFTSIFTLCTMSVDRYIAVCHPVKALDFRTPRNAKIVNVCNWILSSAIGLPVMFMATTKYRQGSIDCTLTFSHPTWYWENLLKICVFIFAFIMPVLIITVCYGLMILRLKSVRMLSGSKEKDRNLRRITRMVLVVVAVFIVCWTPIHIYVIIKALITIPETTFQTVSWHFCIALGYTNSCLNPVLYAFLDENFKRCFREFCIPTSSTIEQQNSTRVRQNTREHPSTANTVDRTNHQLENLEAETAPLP

CN1CC[C@]23c4c5ccc(O)c4O[C@H]2C(=O)CC[C@@]3(O)[C@H]1C5 [oxymorphone HCl]
analgesic rate (mice [1]; other control experiments): 100%

C=CCN1CCC23c4c5ccc(O)c4OC2C(=NN)CCC3(O)C1C5 (stereo not drawn) [Naloxazone, naloxazone]
irreversible inhibition of [^3 H]D-ala^2 -D-leu^5 -enkephalin binding (in words) (opiate receptors [2]): neither naloxazone nor oxymorphazone irreversibly inhibited the binding | Change in Binding (Percent), [^3 H]D-ala^2 -D-leu^5 -enkephalin (opiate receptors [2]): +15 ± 5% | effect on feeding (in words) (rats [3]): significant effect as an appetite suppressant | Amounts eaten, individual animals (rats [3]; 1 hour free access to food, 24 hours after drug): 3.3 grams and 2.4 grams and 3.5 grams | Amounts eaten, Mean ± SEM (rats [3]; 1 hour free access to food, 24 hours after drug, saline 4.78 ± 0.42, significant at the p 0.05 level (ANOVA)): 3.07 ± 0.34 grams | effect on basal levels of prolactin, naloxazone (in words) (prolactin release; basal levels): significant reduction in the basal levels of the drugs | depression of morphine-induced release of prolactin (prolactin release; in vivo): over 80% | effect on prolactin release (in words) (prolactin release; in vivo): selectively lowering prolactin release | effect on basal levels of growth hormone, naloxazone (in words) (growth hormone release; basal levels): significant reduction in the basal levels of the drugs | effect on growth hormone release (in words) (growth hormone release; in vivo): actually increased; also recorded: without effecting growth hormone release elicited by morphine | dose for irreversible blockade of opiate receptor binding (naloxazone) (opiate receptors [4]; high doses): 2 µM | blocking opiate analgesia / effect on opiate-induced lethality (in words) [5]: blocking opiate analgesia with little effect on other classes of binding sites or opiate-induced lethality | stability in solution: reaction to azine (in words) [6]: no azine formation could be detected

NN=C1CCC2(O)C3Cc4ccc(O)c5c4C2(CCN3CC2CC2)C1O5 (stereo not drawn) [Naltrexazone, naltrexazone]
IC50 (opiate receptors [7]): 1.7 ± 0.2 nM | irreversible inhibition of [^3 H]D-ala^2 -D-leu^5 -enkephalin binding (in words) (opiate receptors [2]): small amount of inhibition | Change in Binding (Percent), [^3 H]D-ala^2 -D-leu^5 -enkephalin (opiate receptors [2]): -17 ± 19% | irreversible inhibition of [^3 H]dihydromorphine binding (in words) (opiate receptors [8]): small amount of inhibition | inhibition at 2 µM (opiate receptors [8]; [13]): 31 ± 26% | stability in solution: reaction to azine (in words) [6]: A trace amount of azine was present

O=C1CC[C@@]2(O)[C@H]3Cc4ccc(O)c5c4[C@@]2(CCN3CC2CC2)[C@H]1O5 [Naltrexone, naltrexone]
Tailflick Latencies, After 20 min (mice [1]; 10 mg/kg s.c.): 2.37 ± 0.31 s | Tailflick Latencies, After 40 min (mice [1]; 10 mg/kg s.c.): 2.59 ± 0.35 s | Tailflick Latencies, Prior (mice [1]): 2.63 ± 0.27 s | removal of reversible ligand by washing (in words) (opiate receptors [4]): effectively removed | suppression of eating behavior (known) (rats [9]): effectively suppress eating behavior in rats

CN1CCC23c4c5ccc(O)c4OC2C(=NN=C2CCC4(O)C6Cc7ccc(O)c8c7C4(CCN6C)C2O8)CCC3(O)C1C5 (stereo not drawn) [Oxymorphonazine, oxymorphonazine]
Change in Binding (Percent), [^3 H]D-ala^2 -D-leu^5 -enkephalin (opiate receptors [2]): -59 ± 3% | inhibition at 2 µM (opiate receptors [8]): 71 ± 4% | Analgesia (percent), 1 hr. (mice [10]): 100% | Analgesia (percent), 4 hr. (mice [10]): 100% | Analgesia (percent), 10 hr. (mice [10]): 100% | Analgesia (percent), 20 hr. (mice [10]): 44% | potency of irreversible block of opiate binding in vitro relative to corresponding hydrazone (opiate receptors [4]): 20-40 fold | duration of action (in words) (Duration of action): lasting far longer than conventional opiates

CN1CC[C@]23c4c5ccc(O)c4O[C@H]2[C@@H](O)C=C[C@H]3[C@H]1C5 [Morphine, morphine]
hormone release by morphine (in words) (prolactin release; prolactin and growth hormone): releases both hormones | hormone release by morphine (in words) (growth hormone release; prolactin and growth hormone): releases both hormones | irreversible inhibition of opiate receptor binding / activity (in words) (opiate receptors [4]): show no irreversible inhibition

CN1CCC23c4c5ccc(O)c4OC2C(=NN=C2CCC4(O)C6Cc7ccc(O)c8c7C4(CCN6CC4CC4)C2O8)CCC3(O)C1C5 (stereo not drawn) [Naltrexone-oxymorphonazine, naltrexone-oxymorphonazine]
^3 H-DADL Binding (opiate receptors [11]): 1205 ± 157 cpm | ^3 H-DADL Binding, change (opiate receptors [11]): -33% | ^3 H-DHM Binding (opiate receptors [12]): 1487 ± 120 cpm | inhibition at 0.1 µM (opiate receptors [12]): 57% | Tailflick Latencies, After 20 min (mice [1]; 10 mg/kg s.c.): 2.20 ± 0.35 s | Tailflick Latencies, After 40 min (mice [1]; 10 mg/kg s.c.): 2.29 ± 0.31 s | Tailflick Latencies, Prior (mice [1]): 2.44 ± 0.32 s | animals analgesic (in words) (mice [1]; doubling of baseline latencies, 10 mg/kg s.c.): none of the animals receiving the mixed azine (naltrexone-oxymorphonazine) were analgesic | action in vivo (in words) (mice [1]; in vivo tests of mixed agonist/antagonist compounds): act as antagonists | irreversible inhibition of opiate receptor binding / activity (in words) (opiate receptors [4]): appear to irreversibly bind the opiate receptors

Oc1ccc2c3c1OC1C(=NN=C4CCC5(O)C6Cc7ccc(O)c8c7C5(CCN6CC5CC5)C4O8)CCC4(O)C(C2)N(CC2CC2)CCC314 (stereo not drawn) [Naltrexonazine, naltrexonazine]
IC50 (opiate receptors [7]): 1.16 nM | Change in Binding (Percent), [^3 H]D-ala^2 -D-leu^5 -enkephalin (opiate receptors [2]): -97 ± 3% | inhibition at 2 µM (opiate receptors [8]; [13]): 88 ± 12% | ^3 H-DADL Binding (opiate receptors [11]): 653 ± 85 cpm | ^3 H-DADL Binding, change (opiate receptors [11]): -65% | ^3 H-DHM Binding (opiate receptors [12]): 1183 ± 128 cpm | inhibition at 0.1 µM (opiate receptors [12]): 66% | Tailflick Latencies, After 20 min (mice [1]; 10 mg/kg s.c.): 2.50 ± 0.36 s | Tailflick Latencies, After 40 min (mice [1]; 10 mg/kg s.c.): 2.74 ± 0.49 s | Tailflick Latencies, Prior (mice [1]): 2.50 ± 0.34 s | potency of irreversible block of opiate binding in vitro relative to corresponding hydrazone (opiate receptors [4]): 20-40 fold | selectivity for mu1 class versus naloxone and naltrexone (in words) (opiate receptors [4]; compared with naloxone and naltrexone): far more selective for the mu1 class of opiate binding sites | duration of action (in words) (Duration of action): in the order of days | duration of action (in words) (Duration of action; listed as naltrexonazine): lasting far longer than conventional opiates

CN1CCC23c4c5ccc(O)c4OC2C(=NN)CCC3(O)C1C5 (stereo not drawn) [Oxymorphazone, oxymorphazone]
irreversible inhibition of [^3 H]D-ala^2 -D-leu^5 -enkephalin binding (in words) (opiate receptors [2]): neither naloxazone nor oxymorphazone irreversibly inhibited the binding | Change in Binding (Percent), [^3 H]D-ala^2 -D-leu^5 -enkephalin (opiate receptors [2]): 43% ± 24 | irreversible inhibition of [^3 H]dihydromorphine binding (in words) (opiate receptors [8]): neither naloxazone nor oxymorphazone irreversibly inhibited the binding | inhibition at 2 µM (opiate receptors [8]; [13]): -3% | stability in solution: reaction to azine (in words) [6]: no azine formation could be detected

C=CCN1CCC23c4c5ccc(O)c4OC2C(=NN=C2CCC4(O)C6Cc7ccc(O)c8c7C4(CCN6CC=C)C2O8)CCC3(O)C1C5 (stereo not drawn) [Naloxonazine, naloxonazine]
eliminated [^3 H]D-ala^2 -D-leu^5 -enkephalin binding (opiate receptors [2]; 2 uM, 30 min): over 90% | Change in Binding (Percent), [^3 H]D-ala^2 -D-leu^5 -enkephalin (opiate receptors [2]): -93% ± 4 | dose reproducing the irreversible blockade of opiate receptor binding by naloxazone (opiate receptors [4]; low doses): 50 nM | duration of action (in words) (Duration of action): in the order of days | duration of action (in words) (Duration of action; listed as naloxonazine): lasting far longer than conventional opiates

CN1CC[C@]23c4c5ccc(O)c4O[C@H]2C(=O)CC[C@@]3(O)[C@H]1C5 [Oxymorphone, oxymorphone]
Analgesia (percent), 1 hr. (mice [10]): 100% | Analgesia (percent), 4 hr. (mice [10]): 78% | Analgesia (percent), 10 hr. (mice [10]): 33% | Analgesia (percent), 20 hr. (mice [10]): 0% | removal of reversible ligand by washing (in words) (opiate receptors [4]): effectively removed
